# Read-outs that look alike come from different tables or passages of the source.
# Experiments:
# C. glabrata 2001 = assay: microbe, parasite or virus in culture; assay type: cell-based, Candida glabrata; conditions: Nakaseomyces glabratus, 2001; compound alone; RPMI1640, 37 °C, 48 h; read-out: MIC
# Method in brief: (§1)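 CLSI M27 yeast microdilution; RPMI1640; 2-fold serial dilution of drug (DMSO stock); inoculum 5000 cfu/mL from washed overnight YPD cultures; 37 °C, 2 d.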
# C. glabrata FKS1-S629P = assay: microbe, parasite or virus in culture; assay type: cell-based, Candida glabrata; conditions: Nakaseomyces glabratus, FKS1S629P, 48 h
# Method in brief: as §1
# C. glabrata FKS2-S663P = assay: microbe, parasite or virus in culture; assay type: cell-based, Candida glabrata; conditions: Nakaseomyces glabratus, FKS2S663P, 48 h
# Method in brief: as §1
# C. auris B11245 [1] = assay: microbe, parasite or virus in culture; assay type: cell-based, Candida auris
# Method in brief: as §1
# A. fumigatus AF293 = assay: microbe, parasite or virus in culture; assay type: cell-based, Aspergillus fumigatus
# Cn MRL862 = assay type: cell-based, Cryptococcus neoformans; conditions: RPMI1640, 37 °C, 48 h
# Procedure: (§2) All microdilution assays with fungi were carried out in accordance with CLSI protocols from M27 for yeasts and M38 for filamentous fungi, respectively, unless otherwise specified.[64],[65] Briefly, 96-well plates were charged with RPMI1640 media, with operating volume in the first column, 200 μL, and half operating volume, 100 μL, in the remaining wells. Drug stock solution in DMSO was aliquoted into the first well in each row. Half of the volume in the dosed well was serially diluted 2-fold until column 11. Column 11 was used as the negative growth control, and column 12 was used as the positive growth control. ON yeast cultures in YPD were washed twice in DD-H2O, resuspended in PBS, and adjusted to 5000 cfu/mL in RPMI. The 96-well plate was inoculated with 100 μL aliquots of cell suspension per well. Plates were incubated at 37 °C for 2 days.
# (§3) To assess drug synergy, the initial media charged to the plate contained the peptide at twice the final operating concentration; the remaining processing steps were identical to the MIC experiment. Upon addition of 100 μL of inoculant, the final operating concentration was achieved. Control MIC plates were prepared alongside drug synergy plates to account for the day-to-day variability in any individual MIC. FIC index is computed using eq 1. All MIC assays and drug synergy assays were completed with two technical replicates per 96-well plate and a minimum of two biological replicates per drug combination. If a difference in MIC between the two technical replicates on the plate were observed, only the higher concentration was reported as the MIC to reduce the possibility of type 1 error (false positive) [drawing 1] 1
# C. auris B11245 [2] = assay type: cell-based, Candida auris; conditions: RPMI1640, 37 °C, 48 h; for MIC of antifungal in combination with KKOO-NH2: MIC = well with <20% growth
# Procedure: as §2, §3
# Cn H99 = assay: microbe, parasite or virus in culture; assay type: cell-based, Cryptococcus neoformans; conditions: Cryptococcus neoformans, H99, 48 h, 37 °C, 48 h, read-out: MIC
# Method in brief: (§4)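 MICs were determined by CLSI M27 broth microdilution in RPMI1640, using 2-fold serial dilutions and a 5000 cfu/mL yeast inoculum, with incubation for 2 days at 37 °C. Separate MIC tests were run in YPD enriched with CaCl2 or MgCl2.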
# Cn cdc50Δ = assay: microbe, parasite or virus in culture; assay type: cell-based, Cryptococcus neoformans; conditions: 48 h, 37 °C, 48 h
# Method in brief: as §4
# Cn Crm1-oe = assay: microbe, parasite or virus in culture; assay type: cell-based, Cryptococcus neoformans; conditions: Cryptococcus neoformans, CRM1OE, 48 h, 37 °C
# Cn apt1Δ = assay: microbe, parasite or virus in culture; assay type: cell-based, Cryptococcus neoformans; conditions: Cryptococcus neoformans, 48 h, 37 °C, 48 h
# Cn crm1Δ = assay: microbe, parasite or virus in culture; assay type: cell-based, Cryptococcus neoformans; conditions: Cryptococcus neoformans, 48 h, 37 °C
# [3] = compound alone, RPMI1640, 37 °C, 48 h, * = paradoxical growth observed (CAS)
compound,measurement,setting,value
"OC(Cn1cncn1)(Cn1cncn1)c1ccc(F)cc1F [FLC, fluconazole]",MIC,C. glabrata 2001,8 µg/mL
same,MIC,C. glabrata FKS1-S629P,2 µg/mL
same,MIC,C. glabrata FKS2-S663P,2 µg/mL
same,MIC,"C. auris B11245 [1]; Candidozyma auris, B11245, 48 h",> 128 µg/mL
same,MIC,C. auris B11245 [1]; [3],>128 µg/mL
same,MIC,"A. fumigatus AF293; Aspergillus fumigatus, AF293, 48 h",> 128 µg/mL
same,MIC,A. fumigatus AF293; [3],>128 µg/mL
same,MIC of antifungal in combination with KKOO,Cn MRL862; +0 μg/mL KKOO (control),32 µg/mL
same,MIC of antifungal in combination with KKOO-NH2,Cn MRL862; +0 μg/mL KKOO-NH2 (control),32 µg/mL
same,MIC of antifungal in combination with KKOO-NH2,Cn MRL862; +1 μg/mL KKOO-NH2,32 µg/mL
same,MIC of antifungal in combination with KKOO,Cn MRL862; +1 μg/mL KKOO,64 µg/mL
same,MIC of antifungal in combination with KKOO-NH2,Cn MRL862; +2 μg/mL KKOO-NH2,32 µg/mL
same,MIC of antifungal in combination with KKOO,Cn MRL862; +2 μg/mL KKOO,32 µg/mL
same,MIC of antifungal in combination with KKOO-NH2,Cn MRL862; +4 μg/mL KKOO-NH2,32 µg/mL
same,MIC of antifungal in combination with KKOO,Cn MRL862; +4 μg/mL KKOO,32 µg/mL
same,MIC of antifungal in combination with KKOO,"C. auris B11245 [2]; +0 μg/mL KKOO (control), CAS: paradoxical growth, MIC = <20% growth",> 128 µg/mL
same,MIC of antifungal in combination with KKOO-NH2,"C. auris B11245 [2]; +0 μg/mL KKOO-NH2 (control), CAS: paradoxical growth",>128 µg/mL
same,MIC of antifungal in combination with KKOO-NH2,"C. auris B11245 [2]; +1 μg/mL KKOO-NH2, CAS: paradoxical growth",>128 µg/mL
same,MIC of antifungal in combination with KKOO,"C. auris B11245 [2]; +1 μg/mL KKOO, CAS: paradoxical growth, MIC = <20% growth",> 128 µg/mL
same,MIC of antifungal in combination with KKOO-NH2,"C. auris B11245 [2]; +2 μg/mL KKOO-NH2, CAS: paradoxical growth",>128 µg/mL
same,MIC of antifungal in combination with KKOO,"C. auris B11245 [2]; +2 μg/mL KKOO, CAS: paradoxical growth, MIC = <20% growth",> 128 µg/mL
same,MIC of antifungal in combination with KKOO-NH2,"C. auris B11245 [2]; +4 μg/mL KKOO-NH2, CAS: paradoxical growth",>128 µg/mL
same,MIC of antifungal in combination with KKOO,"C. auris B11245 [2]; +4 μg/mL KKOO, CAS: paradoxical growth, MIC = <20% growth",> 128 µg/mL
same,MIC of antifungal in combination with KKOO,C. auris B11245 [2]; +8 μg/mL KKOO,> 128 µg/mL
same,MIC,Cn H99; YPD + 0 mM Ca2+,8 µg/mL
same,MIC,Cn H99; YPD + 0 mM Mg2+,4 µg/mL
same,MIC,Cn H99; YPD + 2.5 mM Ca2+,8 µg/mL
same,MIC,Cn H99; YPD + 2.5 mM Mg2+,4 µg/mL
same,MIC,Cn H99; YPD + 5 mM Ca2+,8 µg/mL
same,MIC,Cn H99; YPD + 5 mM Mg2+,2 µg/mL
same,MIC,Cn H99; YPD + 10 mM Ca2+,8 µg/mL
same,MIC,Cn H99; YPD + 10 mM Mg2+,2 µg/mL
same,MIC,Cn H99; YPD + 20 mM Ca2+,8 µg/mL
same,MIC,Cn H99; YPD + 20 mM Mg2+,2 µg/mL
same,MIC,"Cn cdc50Δ; Cryptococcus neoformans, YPD + 0 mM Ca2+",0.5 µg/mL
same,MIC,"Cn cdc50Δ; Cryptococcus neoformans, YPD + 2.5 mM Ca2+",0.5 µg/mL
same,MIC,"Cn cdc50Δ; Cryptococcus neoformans, YPD + 5 mM Ca2+",0.5 µg/mL
same,MIC,"Cn cdc50Δ; Cryptococcus neoformans, YPD + 10 mM Ca2+",0.25 µg/mL
same,MIC,"Cn cdc50Δ; Cryptococcus neoformans, YPD + 20 mM Ca2+",0.25 µg/mL
same,MIC,"Cn cdc50Δ; YPD + 0 mM Mg2+, unit not given",½
same,MIC,"Cn cdc50Δ; YPD + 2.5 mM Mg2+, unit not given",¼
same,MIC,"Cn cdc50Δ; YPD + 5 mM Mg2+, unit not given",¼
same,MIC,"Cn cdc50Δ; YPD + 10 mM Mg2+, unit not given",1/8
same,MIC,"Cn cdc50Δ; YPD + 20 mM Mg2+, unit not given",1/16
same,MIC,Cn Crm1-oe; YPD + 0 mM Ca2+,1 µg/mL
same,MIC,Cn Crm1-oe; YPD + 2.5 mM Ca2+,2 µg/mL
same,MIC,Cn Crm1-oe; YPD + 5 mM Ca2+,2 µg/mL
same,MIC,Cn Crm1-oe; YPD + 10 mM Ca2+,2 µg/mL
same,MIC,Cn Crm1-oe; YPD + 20 mM Ca2+,2 µg/mL
same,MIC,Cn apt1Δ; YPD + 0 mM Ca2+,0.25 µg/mL
same,MIC,Cn apt1Δ; YPD + 2.5 mM Ca2+,0.5 µg/mL
same,MIC,Cn apt1Δ; YPD + 5 mM Ca2+,1 µg/mL
same,MIC,Cn apt1Δ; YPD + 10 mM Ca2+,0.5 µg/mL
same,MIC,Cn apt1Δ; YPD + 20 mM Ca2+,0.5 µg/mL
same,MIC,Cn crm1Δ; YPD + 0 mM Ca2+,4 µg/mL
same,MIC,Cn crm1Δ; YPD + 2.5 mM Ca2+,4 µg/mL
same,MIC,Cn crm1Δ; YPD + 5 mM Ca2+,4 µg/mL
same,MIC,Cn crm1Δ; YPD + 10 mM Ca2+,8 µg/mL
same,MIC,Cn crm1Δ; YPD + 20 mM Ca2+,8 µg/mL

# — article PMC11555678, “Improved Broad Spectrum Antifungal Drug Synergies with Cryptomycin, a Cdc50-Inspired Antifungal Peptide” (ACS Infectious Diseases, 2024)
